Experimental data as given in US11396493B2, “Amorphous pyrrolidine derivative as PPAR agonist and preparation method thereof” (GUANGDONG RAYNOVENT BIOTECH CO., LTD., priority 2017, dated 2022).

How the values were obtained:
[1] = Solid stability test under high temperature and high humidity (40° C./75% humidity), HPLC; assay type: physicochemical
Method: Samples (each about 100 mg) of the amorphous form of the compound of formula (I) were weighed in duplicates, and placed on the bottom of a glass sample bottle to spread out into a thin layer. The mouth of the glass sample bottle was sealed with aluminum foil which was pierced to form some holes thereon to ensure that the samples could sufficiently contact with the ambient air. The samples were placed in a constant temperature and humidity chamber at 40° C./75% humidity. The samples stored under the above conditions were sampled and tested on Days 10, 30, 60, and 90. The test results were compared with the initial test results of Day 0.

[2] = Solid physical stability test at high humidity (25° C./92.5% RH), appearance and XRPD; assay type: physicochemical
Method: Samples (each about 100 mg) of the amorphous form of the compound of formula (I) were weighed in duplicates, and placed on the bottom of a glass sample bottle to spread out into a thin layer. The mouth of the glass sample bottle was sealed with aluminum foil which was pierced to form some holes thereon to ensure that the samples could sufficiently contact with the ambient air. The prepared samples were placed under the relative conditions of 25° C./92.5%, and detected for their physical stability on Day 10. Meanwhile, a sample (about 100 mg) of the amorphous form of the compound of formula (I) was separately weighed, placed on the bottom of the glass sample bottle which was sealed with a screw cap, and stored at −20° C. as control. On Day 10, all the samples were taken out and returned to room temperature. The samples were visually observed for their appearance changes, and detected by XRPD for their forms. By comparing the accelerated sample with the control sample, the solid physical stability of the compound of formula (I) was determined.

[3] = Stability tests of the amorphous form in various solvents, XRPD; assay type: physicochemical; conditions: for Appearance: 40° C. 2 days
Method: A plurality of samples of the amorphous form of the compound of formula (I) (each about 20 mg) were respectively added to 0.3-0.4 mL of a single or mixed solvent as listed in the table below, and stirred at 40° C. After being stirred for 2 days, if the sample was still in a state of a solution or close to a solution, it was filtered, followed by natural evaporation of solvent; and if the sample was still a suspension, the sample was centrifuged for collecting the precipitates, and the supernate was placed in a fuming cupboard until the solvent was dried off. Then, the precipitates and the solids obtained after solvent evaporation were placed in a vacuum drying oven at 40° C. overnight. The solids in all the samples were collected and detected by XRPD for their states.

[4] = tested on: cytokines of PPAR-associated pathways; assay: Effect on cytokines of PPAR-associated pathways; conditions: no data shown
PPAR Alpha = molecular target: T1, PPAR Alpha (Homo sapiens, UniProt Q07869); assay: PathHunter NHR protein interaction test, agonist mode, PPAR Alpha; assay type: cell-based
T1 sequence (Q07869 1-468): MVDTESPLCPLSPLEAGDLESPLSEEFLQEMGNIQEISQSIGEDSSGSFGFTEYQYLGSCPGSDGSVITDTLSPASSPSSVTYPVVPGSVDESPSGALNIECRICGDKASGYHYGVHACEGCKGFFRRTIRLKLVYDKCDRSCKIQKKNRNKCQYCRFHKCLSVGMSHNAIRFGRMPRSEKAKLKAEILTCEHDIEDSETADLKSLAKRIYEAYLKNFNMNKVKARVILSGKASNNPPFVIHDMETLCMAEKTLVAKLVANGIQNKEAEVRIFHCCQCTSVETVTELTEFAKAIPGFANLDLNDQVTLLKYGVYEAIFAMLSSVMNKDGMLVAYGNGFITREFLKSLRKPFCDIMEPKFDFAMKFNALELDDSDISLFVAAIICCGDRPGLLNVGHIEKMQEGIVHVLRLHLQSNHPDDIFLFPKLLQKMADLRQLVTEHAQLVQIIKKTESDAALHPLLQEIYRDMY
Description: (§1) Principles of in Vitro Test of PPAR Agonist Activity
(§2) Nuclear Hormone Receptor (NHR) Test
(§3) PathHunter's NHR protein interaction and nuclear transfer test are used to detect the activation ability of nuclear hormone receptor in a uniform, non-imaging experiment. This technology is called as enzyme fragment complementation […], and is developed by DiscoverX.
(§4) NHR protein test is based on the detection of the protein-protein interaction between a standard length of NHR protein in an activated state and a nuclear fusion protein containing a steroid receptor co-activating peptide (SRCP) region and one or more standard LXXLL acting sequences.
(§5) NHR is labeled on the ProLink™ component of an EFC test system, and the SRCP region and the enzyme receptor component (EA) are fused and expressed in the nucleus. When bound to the ligand, the NHR will transfer to the nucleus and obtain the SRCP region in which a complementary effect is produced, thereby generating an equivalent amount of activated-galactosidase (-Gal), accompanied by the generation of chemical light signals. The benefits associated with this pathway include reduced incubation time of the compound, direct test of an NHR target, use of human NHR sequences with a standard length, and selection of some new classes of compounds based on the disruption of protein-protein interactions.
(§6) The NHR NT test detected the transfer of an NHR between the cytoplasmic and nuclear compartments. The receptor was labeled on the ProLink™ component of the EFC test system, while the EA and nuclear sequence were fused, thereby limiting the expression of EA on the nucleus. Nucleus transfer leaded to the complementary effect with EA, thereby generating one equivalent of activated galactosidase (-Gal), accompanied by the generation of chemical light signals.
(§7) 1. PathHunter NHR cell strains were spread from a frozen stock in accordance with standard operations.
(§8) 2. Cells were seeded onto a 384-well white cell plate of 20 uL/well, and incubated at 37° C. for an appropriate time prior to test. The culture medium contained activated carbon dextran with filtered serum to reduce the level of hormone expression.
(§9) Experiments of Agonist Mode:
(§10) 1. As for the measurement of an agonist activity, it is required to incubate the cells with the compound to induce a response.
2. […]
(§11) 2. The chemiluminescence signals generated by the microplate were to be detected by a PerkinElmer Envision instrument.
(§12) 1. The activity of the compound was analyzed by CIBS data analysis software (ChemInnovation, CA).
(§13) 2. For experiments of agonist mode, the percentage activity is calculated by the following formula: % activity=100%×(the mean RLU of the compound to be tested−the mean background RLU of the medium)/(the mean of maximum control of the ligand−the mean background RLU of the medium)

PPAR Gamma = molecular target: T2, PPAR Gamma (Homo sapiens, UniProt P37231); assay: PathHunter NHR protein interaction test, agonist mode, PPAR Gamma; assay type: cell-based; conditions: agonist mode
T2 sequence (P37231 1-505): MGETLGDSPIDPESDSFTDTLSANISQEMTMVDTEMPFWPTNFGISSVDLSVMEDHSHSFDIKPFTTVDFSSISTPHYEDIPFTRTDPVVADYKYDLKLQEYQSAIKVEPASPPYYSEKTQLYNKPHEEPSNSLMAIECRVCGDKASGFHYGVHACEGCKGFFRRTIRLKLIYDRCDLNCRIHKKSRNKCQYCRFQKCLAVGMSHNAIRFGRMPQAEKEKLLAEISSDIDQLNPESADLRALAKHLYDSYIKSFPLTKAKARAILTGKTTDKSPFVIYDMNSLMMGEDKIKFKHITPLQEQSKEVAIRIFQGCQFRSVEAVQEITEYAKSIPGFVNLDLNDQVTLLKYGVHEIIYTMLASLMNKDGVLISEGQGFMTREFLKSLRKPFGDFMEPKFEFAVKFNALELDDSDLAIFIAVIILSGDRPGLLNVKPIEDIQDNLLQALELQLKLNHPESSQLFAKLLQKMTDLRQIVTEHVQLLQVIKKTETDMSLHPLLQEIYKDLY
Description: as §1, §2, §3, §4, §5
The NHR NT test detected the transfer of an NHR between the cytoplasmic and nuclear compartments. […]
as §11, §12, §13

PPAR Delta = molecular target: T3, PPAR Delta (Homo sapiens, UniProt Q03181); assay: PathHunter NHR protein interaction test, agonist mode, PPAR Delta; assay type: cell-based
T3 sequence (Q03181 1-441): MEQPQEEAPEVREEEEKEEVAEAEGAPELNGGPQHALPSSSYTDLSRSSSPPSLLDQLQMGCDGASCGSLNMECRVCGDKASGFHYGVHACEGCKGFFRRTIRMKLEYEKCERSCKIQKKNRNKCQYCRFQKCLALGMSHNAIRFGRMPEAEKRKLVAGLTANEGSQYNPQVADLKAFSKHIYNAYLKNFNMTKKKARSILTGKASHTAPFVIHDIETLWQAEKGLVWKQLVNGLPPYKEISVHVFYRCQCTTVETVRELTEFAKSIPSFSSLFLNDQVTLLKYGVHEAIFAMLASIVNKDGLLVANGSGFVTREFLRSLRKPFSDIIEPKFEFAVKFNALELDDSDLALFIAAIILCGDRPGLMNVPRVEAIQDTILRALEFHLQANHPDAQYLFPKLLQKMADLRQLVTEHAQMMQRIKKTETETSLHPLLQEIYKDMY
Description: as §1, §2, §3, §4, §5, §6, §7, §8, §9, §10
2. […]
as §11, §12, §13

[5] = 40° C./75% humidity, open, Day 10, HPLC
[6] = 40° C./75% humidity, open, Day 30, HPLC
[7] = 40° C./75% humidity, open, Day 60, HPLC
[8] = 40° C./75% humidity, open, Day 90, HPLC

With `CSc1ccc(C(=O)[C@@H]2CN(C(=O)Oc3ccccc3)C[C@H]2Cc2cc(C)c(OC(C)(C)C(=O)O)c(C)c2)cc1` the Appearance ([1]; 40° C./75% humidity, open, Day 10) was “Off-white powder”, the “Purity (%)” value [1, 5] was 97.49% and the “Total Impurity (%)” value [1, 5] was 2.51%. For the same compound, the Appearance ([1]; 40° C./75% humidity, open, Day 30) was “Off-white powder”, the “Purity (%)” value [1, 6] was 97.31% and the “Total Impurity (%)” value [1, 6] was 2.69%. For the same compound, the Appearance ([1]; 40° C./75% humidity, open, Day 60) was “Off-white powder”, the “Purity (%)” value [1, 7] was 97.59% and the “Total Impurity (%)” value [1, 7] was 2.41%. For the same compound, the Appearance ([1]; 40° C./75% humidity, open, Day 90) was “Off-white powder”, the “Purity (%)” value [1, 8] was 97.28% and the “Total Impurity (%)” value [1, 8] was 2.72%. The “stability at high temperature and humidity” value ([1]; 40° C./75% humidity, up to Day 90) was “does not exhibit a significant change in content and impurities”, the Appearance ([1]; Day 0 (initial)) was “Off-white powder” and the “Purity (%)” value ([1]; Day 0 (initial), HPLC) was 97.37%. The “Total Impurity (%)” value ([1]; Day 0 (initial), HPLC) was 2.63%, the “stability at high humidity” value ([2]; 25° C./92.5% RH, Day 10) was “does not exhibit form and appearance changes” and the Appearance ([2]; 25° C./92.5% Relative Humidity (Open), Day 10) was “Off-white powder”. The Form ([2]; 25° C./92.5% Relative Humidity (Open), Day 10, XRPD) was “Amorphous”, the Appearance ([3]; 1,4-dioxane, about 20 mg in 0.3-0.4 mL, cell wraps: ...Solid precipitated after evaporation of solvent) was “Suspension (2 days)/Solid” and the Appearance ([3]; Acetone, about 20 mg in 0.3-0.4 mL, cell wraps: ...Solid precipitated after evaporation of solvent) was “Suspension (2 days)/Solid”. The Appearance ([3]; Acetone:water = 3:1, about 20 mg in 0.3-0.4 mL, cell wraps: ...Solid precipitated after evaporation of solvent) was “Suspension (2 days)/Solid”, the Appearance ([3]; Acetonitrile, about 20 mg in 0.3-0.4 mL, cell wraps: ...Solid precipitated after evaporation of solvent) was “Suspension (2 days)/Solid” and the Appearance ([3]; Acetonitrile:water = 3:1, about 20 mg in 0.3-0.4 mL, cell wraps: ...Solid precipitated after evaporation of solvent) was “Suspension (2 days)/Solid”. The Appearance ([3]; Ethanol, about 20 mg in 0.3-0.4 mL, cell wraps: ...Solid precipitated after evaporation of solvent) was “Suspension (2 days)/Solid”, the Appearance ([3]; Ethanol:water = 3:1, about 20 mg in 0.3-0.4 mL, cell wraps: ...Solid precipitated after evaporation of solvent) was “Suspension (2 days)/Solid” and the Appearance ([3]; Ethyl acetate, about 20 mg in 0.3-0.4 mL, cell wraps: ...Solid precipitated after evaporation of solvent) was “Suspension (2 days)/Solid”. For the same compound, the Appearance ([3]; Methanol, about 20 mg in 0.3-0.4 mL, cell wraps: ...after evaporation of solvent) was “Solid precipitated after”, the “Results (form by XRPD)” value ([3]; Methanol, stirred at 40° C. 2 days) was “Amorphous” and the Appearance ([3]; Methanol:water = 3:1, about 20 mg in 0.3-0.4 mL, cell wraps: ...after evaporation of solvent) was “Solid precipitated after”. For the same compound, the “Results (form by XRPD)” value ([3]; Methanol:water = 3:1, stirred at 40° C. 2 days) was “Amorphous”, the Appearance ([3]; Tetrafuran, about 20 mg in 0.3-0.4 mL, cell wraps: ...Solid precipitated after evaporation of solvent) was “Suspension (2 days)/Solid” and the “stability of form in various solvents” value ([3]; summary of Table 4) was “does not exhibit any change of form”. For the same compound, the “effect on cytokines of PPAR-associated pathways” value [4] was “obvious inhibitory effect”.
Work on `CSc1ccc(C(=O)/C=C/c2cc(C)c(OC(C)(C)C(=O)O)c(C)c2)cc1` [GFT-505, Elafibranor, reference compound] yielded an EC50 (PPAR Alpha; agonist mode) greater than 250 nM and an EC50 (PPAR Gamma) greater than 250 nM.
For `CC(C)(Sc1ccc(CCN(CCCCC2CCCCC2)C(=O)NC2CCCCC2)cc1)C(=O)O` [GW7647, reference compound], the “PPAR Alpha Maximum stimulus-response value” (PPAR Alpha; reference agonist, set as 100%) was 100%.
With `CCCc1c(OCCCOc2ccc(OCC(=O)O)cc2)ccc(C(C)=O)c1O` [L-165,041, reference compound] the EC50 (PPAR Delta; agonist mode) was less than 100 nM and the “PPAR Delta Maximum stimulus-response value” (PPAR Delta; reference agonist, set as 100%) was 100%.
